What all share (assay): fluorescence anisotropy
Common to all, as to assay type: binding
Common to all, as to settings: 50 mM Hepes pH 7.5, 0.1 M NaCl, 0.005% DDM, 0.2% CHAPS, 21°C, 0.33 μM probe; labelled compound
(Polarisation of emitted light reports the rotation of a fluorescent probe.)

For assay [1], the target named is T1, HisFtsW-FtsI(PBP3) complex (FtsW-FtsI/PBP3, "W 3") (Escherichia coli, UniProt P0ABG4).
T1 construct: His-tagged FtsW co-expressed with untagged FtsI/PBP3 from pDML2041 in E. coli C43(DE3); DDM-solubilised membranes, HisTrap, G25 desalting; tag kept; with Peptidoglycan D,D-transpeptidase FtsI
T1 sequence (P0ABG4 1-414): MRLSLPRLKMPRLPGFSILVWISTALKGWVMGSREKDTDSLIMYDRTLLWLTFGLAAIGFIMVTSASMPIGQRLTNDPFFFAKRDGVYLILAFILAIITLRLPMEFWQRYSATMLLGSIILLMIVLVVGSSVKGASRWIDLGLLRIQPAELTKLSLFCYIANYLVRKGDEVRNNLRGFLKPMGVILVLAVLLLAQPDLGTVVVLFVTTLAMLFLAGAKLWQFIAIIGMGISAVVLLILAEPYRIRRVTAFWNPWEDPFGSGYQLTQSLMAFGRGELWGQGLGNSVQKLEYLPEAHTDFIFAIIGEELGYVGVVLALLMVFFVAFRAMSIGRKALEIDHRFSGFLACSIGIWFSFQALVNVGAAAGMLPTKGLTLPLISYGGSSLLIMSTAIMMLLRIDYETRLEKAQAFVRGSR
T1 sequence (P0AD68 1-577 partner): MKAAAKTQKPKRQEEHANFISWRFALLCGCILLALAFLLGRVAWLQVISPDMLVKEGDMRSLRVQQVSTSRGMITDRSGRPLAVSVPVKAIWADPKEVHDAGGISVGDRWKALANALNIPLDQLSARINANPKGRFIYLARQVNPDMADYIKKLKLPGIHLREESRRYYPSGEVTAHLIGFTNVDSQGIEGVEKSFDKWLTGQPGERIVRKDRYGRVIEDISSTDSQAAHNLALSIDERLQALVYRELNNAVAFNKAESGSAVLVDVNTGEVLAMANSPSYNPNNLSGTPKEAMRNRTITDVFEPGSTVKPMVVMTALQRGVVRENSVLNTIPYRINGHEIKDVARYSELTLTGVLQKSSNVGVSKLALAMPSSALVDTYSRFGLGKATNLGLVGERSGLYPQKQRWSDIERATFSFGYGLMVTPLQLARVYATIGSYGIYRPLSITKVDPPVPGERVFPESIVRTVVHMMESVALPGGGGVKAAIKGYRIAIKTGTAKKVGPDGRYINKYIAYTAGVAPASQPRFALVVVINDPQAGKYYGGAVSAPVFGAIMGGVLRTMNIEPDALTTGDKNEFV

Assay [2] concerns the target T2, HisFtsW-FtsI(PBP3) complex (FtsW-FtsI/PBP3, "W 3") (Escherichia coli, UniProt P0ABG4, G381D).
T2 construct: His-tagged FtsW co-expressed with untagged FtsI/PBP3 from pDML2041 in E. coli C43(DE3); DDM-solubilised membranes, HisTrap, G25 desalting; tag kept; with Peptidoglycan D,D-transpeptidase FtsI
T2 sequence (P0ABG4 1-414 G381D): T1 sequence (P0ABG4 1-414)
T2 sequence (P0AD68 1-577 partner): T1 sequence (P0AD68 1-577 partner)
An excerpt: (§1) fluorescence anisotropy on HisFtsW-FtsI(PBP3) complex (FtsW-FtsI/PBP3, "W 3")

Assay [3] has as its target T3, HisFtsW-FtsI(PBP3) complex (FtsW-FtsI/PBP3, "W 3") (Escherichia coli, UniProt P0ABG4, A135T).
T3 construct: His-tagged FtsW co-expressed with untagged FtsI/PBP3 from pDML2041 in E. coli C43(DE3); DDM-solubilised membranes, HisTrap, G25 desalting; tag kept; with Peptidoglycan D,D-transpeptidase FtsI
T3 sequence (P0ABG4 1-414 A135T): T1 sequence (P0ABG4 1-414)
T3 sequence (P0AD68 1-577 partner): T1 sequence (P0AD68 1-577 partner)
Excerpt: as §1

Assay [4] concerns the target T4, HisFtsW-FtsI(PBP3) complex (FtsW-FtsI/PBP3, "W 3") (Escherichia coli, UniProt P0ABG4, D297A).
T4 construct: His-tagged FtsW co-expressed with untagged FtsI/PBP3 from pDML2041 in E. coli C43(DE3); DDM-solubilised membranes, HisTrap, G25 desalting; tag kept; with Peptidoglycan D,D-transpeptidase FtsI
T4 sequence (P0ABG4 1-414 D297A): T1 sequence (P0ABG4 1-414)
T4 sequence (P0AD68 1-577 partner): T1 sequence (P0AD68 1-577 partner)
Excerpt: as §1

Assay [5] addresses T5, HisFtsW-FtsI(PBP3) complex (FtsW-FtsI/PBP3, "W 3") (Escherichia coli, UniProt P0ABG4, Y242H).
T5 construct: His-tagged FtsW co-expressed with untagged FtsI/PBP3 from pDML2041 in E. coli C43(DE3); DDM-solubilised membranes, HisTrap, G25 desalting; tag kept; with Peptidoglycan D,D-transpeptidase FtsI
T5 sequence (P0ABG4 1-414 Y242H): T1 sequence (P0ABG4 1-414)
T5 sequence (P0AD68 1-577 partner): T1 sequence (P0AD68 1-577 partner)
Excerpt: as §1

The target of assay [6] is T6, HisFtsW-FtsI(PBP3) complex (FtsW-FtsI/PBP3, "W 3") (Escherichia coli, UniProt P0ABG4, R243L).
T6 construct: His-tagged FtsW co-expressed with untagged FtsI/PBP3 from pDML2041 in E. coli C43(DE3); DDM-solubilised membranes, HisTrap, G25 desalting; tag kept; with Peptidoglycan D,D-transpeptidase FtsI
T6 sequence (P0ABG4 1-414 R243L): T1 sequence (P0ABG4 1-414)
T6 sequence (P0AD68 1-577 partner): T1 sequence (P0AD68 1-577 partner)
Excerpt: as §1

Assay [7] deals with T7, HisFtsW-FtsI(PBP3) complex (FtsW-FtsI/PBP3, "W 3") (Escherichia coli, UniProt P0ABG4, Q147E).
T7 construct: His-tagged FtsW co-expressed with untagged FtsI/PBP3 from pDML2041 in E. coli C43(DE3); DDM-solubilised membranes, HisTrap, G25 desalting; tag kept; with Peptidoglycan D,D-transpeptidase FtsI
T7 sequence (P0ABG4 1-414 Q147E): T1 sequence (P0ABG4 1-414)
T7 sequence (P0AD68 1-577 partner): T1 sequence (P0AD68 1-577 partner)
Excerpt: as §1

Assay [8] deals with T8, HisFtsW-FtsI(PBP3) complex (FtsW-FtsI/PBP3, "W 3") (Escherichia coli, UniProt P0ABG4, P196T).
T8 construct: His-tagged FtsW co-expressed with untagged FtsI/PBP3 from pDML2041 in E. coli C43(DE3); DDM-solubilised membranes, HisTrap, G25 desalting; tag kept; with Peptidoglycan D,D-transpeptidase FtsI
T8 sequence (P0ABG4 1-414 P196T): T1 sequence (P0ABG4 1-414)
T8 sequence (P0AD68 1-577 partner): T1 sequence (P0AD68 1-577 partner)
Excerpt: as §1

For assay [9], the target named is T9, HisFtsW-FtsI(PBP3) complex (FtsW-FtsI/PBP3, "W 3") (Escherichia coli, UniProt P0ABG4, G199A).
T9 construct: His-tagged FtsW co-expressed with untagged FtsI/PBP3 from pDML2041 in E. coli C43(DE3); DDM-solubilised membranes, HisTrap, G25 desalting; tag kept; with Peptidoglycan D,D-transpeptidase FtsI
T9 sequence (P0ABG4 1-414 G199A): T1 sequence (P0ABG4 1-414)
T9 sequence (P0AD68 1-577 partner): T1 sequence (P0AD68 1-577 partner)
Excerpt: as §1

In assay [10] the target is T10, HisFtsW-FtsI(PBP3) complex (FtsW-FtsI/PBP3, "W 3") (Escherichia coli, UniProt P0ABG4, G371S).
T10 construct: His-tagged FtsW co-expressed with untagged FtsI/PBP3 from pDML2041 in E. coli C43(DE3); DDM-solubilised membranes, HisTrap, G25 desalting; tag kept; with Peptidoglycan D,D-transpeptidase FtsI
T10 sequence (P0ABG4 1-414 G371S): T1 sequence (P0ABG4 1-414)
T10 sequence (P0AD68 1-577 partner): T1 sequence (P0AD68 1-577 partner)
Excerpt: as §1

For assay [11], the target named is T11, HisFtsW-FtsI(PBP3) complex (FtsW-FtsI/PBP3, "W 3") (Escherichia coli, UniProt P0ABG4, W138A).
T11 construct: His-tagged FtsW co-expressed with untagged FtsI/PBP3 from pDML2041 in E. coli C43(DE3); DDM-solubilised membranes, HisTrap, G25 desalting; tag kept; with Peptidoglycan D,D-transpeptidase FtsI
T11 sequence (P0ABG4 1-414 W138A): T1 sequence (P0ABG4 1-414)
T11 sequence (P0AD68 1-577 partner): T1 sequence (P0AD68 1-577 partner)
Excerpt: as §1

By Kd is commonly meant a measure of binding affinity in units of concentration. With `CC(=O)N[C@H]1[C@H](O[C@H]2[C@H](O[C@H](C)C(=O)N[C@@H](C)C(=O)N[C@H](CCC(=O)N[C@@H](CCCCNc3ccc([N+](=O)[O-])c4nonc34)C(=O)N[C@H](C)C(=O)N[C@H](C)C(=O)O)C(=O)O)[C@@H](NC(C)=O)[C@@H](OP(=O)(O)OP(=O)(O)OC/C=C(/C)CC/C=C(/C)CC/C=C(/C)CC/C=C(/C)CC/C=C(/C)CC/C=C(/C)CC/C=C(/C)CC/C=C(/C)CC/C=C(\C)CC/C=C(\C)CCC=C(C)C)O[C@@H]2CO)O[C@H](CO)[C@@H](O)[C@@H]1O` [NBD-lipid II], the Kd in assay [1] is 130 nM; in [2] it was 100 nM; in assay [3], 60 nM; in assay [4], 90 nM; in assay [5], 40 nM; in assay [6], 70 nM. Moreover, the Kd in assay [7] came out at 70 nM; in [8], 60 nM; in assay [9] it was 110 nM; in [10] it was 50 nM; in assay [11], 60 nM.
